Patent publication US20240279338A1, “Combination Treatment of Cancer” (Ares Trading S.A., priority 2021, published 2024)

Key:
NT5E (CD73) [1] = assay: RNAseq gene expression in MC38 tumors; type: in vivo, mice; conditions: bintrafusp alfa 24.6 mg/kg iv, Day 6 post treatment, vs isotype
Description: (§1) FIG. 4: Bintrafusp alfa increases expression of A2B in CD73h adenosine-rich 4T1 tumor model, but not in CD73^low adenosine-low MC38 tumor model. For the 4T1 tumor model, female BALB/c mice were inoculated with 2×10^5 4T1 cells into the right mammary fat pad. For the MC38 tumor model, female C57BL/6 mice were inoculated subcutaneously in the right flank with MC38 cells (1×10^6). Animals in both studies were randomized into the groups and treatments started when the average tumor size reached approximately 100-150 mm^3. For both models, there were 15 mice in each group. The animals were treated with isotype control (20 mg/kg, iv) or bintrafusp alfa (24.6 mg/kg, iv) on days 0, 1, and 2. Tumors were harvested on Day 6 post treatment start, flash frozen, and used for RNASeq analysis. Gene expression levels of (A) NT5E, (B) ADORA2A (A2A), and (C) ADORA2B (A2B) are presented as mean±SEM. P-values were calculated using two-way ANOVA.
(§2) To determine whether bintrafusp alfa treatment modulates expression of A2A or A2B receptors or NT5E (gene encoding CD73), mice with established 4T1 and MC38 tumors were treated with 20 mg/kg isotype antibody or 24.6 mg/kg bintrafusp alfa.

ADORA2A (A2A) [2] = assay: RNAseq gene expression in MC38 tumors; type: in vivo, mice; conditions: bintrafusp alfa 24.6 mg/kg iv, Day 6 post treatment, vs isotype
Description: as §1, §2

NT5E (CD73) [3] = assay: RNAseq gene expression in 4T1 tumors; type: in vivo, mice; conditions: bintrafusp alfa 24.6 mg/kg iv, Day 6 post treatment, vs isotype
Description: as §1, §2

ADORA2B (A2B) = assay: RNAseq gene expression in 4T1 tumors; type: in vivo, mice; conditions: CD73hi 4T1 tumors; bintrafusp alfa 24.6 mg/kg iv; Day 6 post treatment; vs isotype
Description: as §1, §2

ADORA2A (A2A) [4] = assay: RNAseq gene expression in 4T1 tumors; type: in vivo, mice; conditions: bintrafusp alfa 24.6 mg/kg iv, Day 6 post treatment, vs isotype
Description: as §1, §2

H22 cells = assay: CD73low H22 syngeneic tumor model, tumor growth; type: in vivo; conditions: H22, female BALB/c mice; Day 16 post treatment initiation; Compound A 300 mg/kg po BID; bintrafusp alfa 24.6 mg/kg iv days 0, 3, 6
Description: Female BALB/c mice were inoculated with 1×10^6 H22 cells in the right upper flank and were treated with Compound A (300 mg/kg po, BID), bintrafusp alfa (24.6 mg/kg iv, days 0, 3, 6), Compound A+bintrafusp alfa, when average tumor volume reached approximately 55 mm3. Vehicle (po, BID) and isotype control antibody injections (20 mg/kg iv, days 0, 3, 6) were used as controls. (A) Average tumor volumes with SEM, and (B) individual tumor volumes are presented. Tumor volume data were analyzed using two-way ANOVA followed by Tukey's multiple comparison test.
(§3) To determine whether combined treatment with the dual A2A/A2B receptor inhibitor “Compound A” ((S)-7-Oxa-2-aza-spiro[4.5]decane-2-carboxylic acid [7-(3,6-dihydro-2H-pyran-4-yl)-4-methoxy-thiazolo[4,5-c]pyridin-2-yl]-amide) and bintrafusp alfa can inhibit tumor growth in either CD73^hi or CD73^low models, tumor growth was monitored in […] syngeneic tumor models. Animals were inoculated with either CD73^hi tumor cells (4T1, E0771, or EMT6) or with CD73^low MC38, H22 or MBT2 tumor cells. For all tumor models, animals were treated with either 1) vehicle and isotype, 2) Compound A and isotype, 3) vehicle and bintrafusp alfa, or 4) Compound A and bintrafusp alfa. […]

EMT6 cells = assay: CD73hi EMT6 syngeneic tumor model, tumor growth; type: in vivo, mice; conditions: Day 10 post treatment initiation, Compound A 300 mg/kg po BID alone
Description: Female BALB/c mice were inoculated with 2.5×10^5 EMT6 cells into the right mammary fat pad and were treated with Compound A (300 mg/kg po, BID), bintrafusp alfa (24.6 mg/kg iv, days 0, 3, 6), Compound A+bintrafusp alfa, when average tumor volume reached approximately 60 mm^3. Vehicle (po, BID) and isotype control antibody injections (20 mg/kg iv, days 0, 3, 6) were used as controls. (A) Average tumor volumes with SEM, and (B) individual tumor volumes are presented. Tumor volume data were analyzed using two-way ANOVA followed by Tukey's multiple comparison test.
as §3

| Compound | expression of NT5E (CD73) (NT5E (CD73) [1]) | expression of A2A (ADORA2A (A2A) [2]) | expression of NT5E (CD73) (NT5E (CD73) [3]) | expression of A2B (ADORA2B (A2B)) | expression of A2A (ADORA2A (A2A) [4]) | tumor growth inhibition, T/C (H22 cells) | tumor growth inhibition (EMT6 cells) |
| --- | --- | --- | --- | --- | --- | --- | --- |
| bintrafusp alfa: anti-PD-L1:TGFβRII fusion protein, CAS 1918149-01-5; human IgG1 antibody against PD-L1 fused to extracellular domain of human TGF-β receptor II | no changes | no changes | no changes | increased | no changes | 34.4% | – |
| COc1ncc(C2=CCOCC2)c2sc(NC(=O)N3CC[C@@]4(CCCOC4)C3)nc12 [Compound A, (S)-7-Oxa-2-aza-spiro[4.5]decane-2-carboxylic acid [7-(3,6-dihydro-2H-pyran-4-yl)-4-methoxy-thiazolo[4,5-c]pyridin-2-yl]-amide] | – | – | – | – | – | – | did not show tumor growth inhibition |
